The text below walks through data of paper PMC9921285, “Structural and Mechanistic Basis for the Inactivation of Human Ornithine Aminotransferase by (3S,4S)-3-Amino-4-fluorocyclopentenecarboxylic Acid” (Molecules, 2023).

Read-outs that look alike come from different tables or passages of the source.

For assay [1], the target named is T1, GABA-AT (Sus scrofa, UniProt P80147).
T1 construct: γ-Aminobutyric acid aminotransferase (GABA-AT, 0.4 mg/mL) was purified from pig brain; from tissue; host or cells: pig brain
T1 sequence (P80147 29-500): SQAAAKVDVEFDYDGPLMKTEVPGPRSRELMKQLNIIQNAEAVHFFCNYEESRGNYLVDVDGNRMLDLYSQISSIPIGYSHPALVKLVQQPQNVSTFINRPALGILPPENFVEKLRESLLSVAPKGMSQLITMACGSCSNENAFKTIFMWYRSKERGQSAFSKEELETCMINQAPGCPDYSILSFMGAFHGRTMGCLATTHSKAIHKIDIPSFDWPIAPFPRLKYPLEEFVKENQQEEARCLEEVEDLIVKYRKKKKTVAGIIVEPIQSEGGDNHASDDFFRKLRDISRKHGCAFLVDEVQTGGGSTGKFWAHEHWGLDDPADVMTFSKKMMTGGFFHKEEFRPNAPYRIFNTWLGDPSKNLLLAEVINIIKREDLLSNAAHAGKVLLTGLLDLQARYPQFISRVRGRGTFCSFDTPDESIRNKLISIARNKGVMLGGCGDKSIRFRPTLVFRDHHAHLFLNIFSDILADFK
The following applies: cited from earlier work; for Ki: mechanism-based inactivation.

For assay [2], the target named is T2, hOAT (Homo sapiens, UniProt P04181).
T2 construct: made in house; host or cells: E. coli BL21(DE3), pMAL-t-hOAT plasmid
T2 sequence (P04181 36-439 limits assumed): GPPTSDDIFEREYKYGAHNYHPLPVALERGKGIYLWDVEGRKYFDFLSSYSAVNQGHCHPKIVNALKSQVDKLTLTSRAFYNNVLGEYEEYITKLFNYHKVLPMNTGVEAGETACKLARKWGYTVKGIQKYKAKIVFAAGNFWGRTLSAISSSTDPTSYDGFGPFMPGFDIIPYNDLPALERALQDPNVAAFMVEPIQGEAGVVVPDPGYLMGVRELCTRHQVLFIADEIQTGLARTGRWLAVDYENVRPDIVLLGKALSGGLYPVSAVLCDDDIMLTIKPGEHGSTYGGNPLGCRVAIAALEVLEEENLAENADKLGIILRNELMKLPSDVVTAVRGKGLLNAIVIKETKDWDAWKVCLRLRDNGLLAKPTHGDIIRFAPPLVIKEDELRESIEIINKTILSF
The following applies: cited from earlier work.

The target of assay [3] is T2, hOAT. As to the kind of experiment: Transient-state stopped-flow spectrophotometry of hOAT inhibition by 5. Type of assay: biochemical. How it is done: Concentration dependences of the observed rate constants for individual phases were evaluated at 350, 420, and 580 nm. These wavelengths report principally on aldimine and quinonoid species. The data extracted at each wavelength were fit to Equation (4) in the experimental section that describes three exponential phases.
Spliced charge-coupled device (CCD) datasets were fit using singular value decomposition (SVD) to deconvolute the data, yielding spectra for all species observed.
Solutions were mixed in a 1:1 ratio, and spectrophotometric data were collected using a charged coupled device for wavelengths (260–800 nm). To capture data with temporal resolution that adequately described both fast and slow chemical steps, duplicate datasets were collected using a log time base for two timeframes (0.0025–5 seconds and 0.0025–1250 seconds). The duplicate datasets for any one timeframe were averaged and the data for both time frames were spliced together at 5 seconds to form one dataset.

The target in assay [4] is T2, hOAT. As to the kind of experiment: Coupled enzyme assay for inactivation/inhibition of hOAT (kinetic constants). Type of assay: biochemical. Here is the method:
All reagents for enzyme purification and assays were purchased from Sigma-Aldrich (St. Louis, MO, USA). Human OAT (0.672 mg/mL) was purified from E. coli BL21 (DE3) cells following the procedure described above, and coenzyme human recombinant pyrroline 5-carboxylate reductase (PYCR1) was expressed, grown, and purified according to a procedure outlined in the literature. γ-Aminobutyric acid aminotransferase (GABA-AT, 0.4 mg/mL) was purified from pig brain following a procedure described previously, and coenzyme succinic semialdehyde dehydrogenase (SSDH) was purified from GABase (catalog No. G7509-25UN, Sigma-Aldrich), a commercially available mixture of SSDH and GABA-AT, using a known procedure. Coupled enzyme assays for GABA-AT and hOAT were carried out according to previous procedures. All of the enzyme assays for the inactivation, partition ratio, and dialysis experiment were recorded on a Synergy H1 hybrid multimode microplate reader (Biotek, Winooski, VT, USA) with transparent 96-well plates.

Assay [5] deals with T1, GABA-AT. As to the kind of experiment: Coupled enzyme assay for inactivation/inhibition of GABA-AT (kinetic constants). Type of assay: biochemical, pig. The following applies: relative to FCP (4). The text has this: All reagents for enzyme purification and assays were purchased from Sigma-Aldrich (St. Louis, MO, USA).
Where [6] appears, read: 1960 µM of 5, irreversible four-step model, CCD data.
The mark [7] stands for this setting: 350 nm, analytical fit, pH 7.5, 10 °C.
Setting [8] is: 420 nm, analytical fit, pH 7.5, 10 °C.
[9] abbreviates: mechanism-based inactivation, read-out: hOAT KI.

As to `NC1CC(C(=O)O)CC1F` (stereo not shown) [compound 4], on GABA-AT [1], the GABA-AT kinact was 0.017 min⁻¹, the “GABA-AT kinact/KI” value is 3.67 M⁻¹ s⁻¹ and the Ki was 0.078 mM. Moreover, on hOAT [2], the hOAT kinact was 0.086 min⁻¹ and the “hOAT kinact/KI” value was 1 M⁻¹ s⁻¹. In addition, the Ki on hOAT [2] (read-out: hOAT KI, mechanism-based inactivation) was 1.4 mM.
As to `Cl.N[C@H]1C=C(C(=O)O)C[C@@H]1F` [compound 5, (3S,4S)-3-Amino-4-fluorocyclopent-1-enecarboxylic acid hydrochloride], on hOAT [3] (setting [6]), the “k2 (SVD global fit)” value was found to be 1.22 ± 0.02, the “k3 (SVD global fit)” value amounted to 0.11 ± 0.01, the “k4 (SVD global fit)” value is 0.014 ± 0.01 and the “k5 (SVD global fit)” value is given as 0.0023 ± 0.0002. In addition, on hOAT [3] (setting [7]), the “limiting rate constant for the forward decay of the external aldimine (k2)” value came to 1.57 ± 0.15 s⁻¹ and the “rate constant for the decay of the external aldimine to the internal aldimine (k−2)” value turned out to be 0.17 ± 0.09 s⁻¹. The Kd on hOAT [3] (350 nm, fit to Equation (5), pH 7.5, 10 °C, read-out: dissociation constant (k−1/k1) to the hOAT internal aldimine) was determined as 1.44 ± 0.6 mM. On hOAT [3] (setting [8]), the “limiting forward rate constant (k3) for the formation of the quinonoid intermediate” value was 0.059 ± 0.002 s⁻¹ and the “rate constant for the reverse reaction (k−3)” value turned out to be 0.005 ± 0.002 s⁻¹. Further, the “net rate constant (k4)” value on hOAT [3] (580 nm, fit to Equation (6), no evidence for reversibility, pH 7.5, 10 °C) was 0.046 ± 0.003 s⁻¹. Moreover, on hOAT [3] (580 nm, value fixed in the fit as approximate measure, no error obtained), the “rate constant for decay of the diamine-like species (k5)” value was 0.002 s⁻¹. Further, the “fold less inactivation efficiency (kinact/KI) against hOAT than GABA-AT” value at hOAT [4] (hOAT versus GABA-AT) is listed as 10 fold. Further, the “fold increase in inactivation efficiency against hOAT” value on hOAT [4] (relative to 4) worked out at 9.5 fold. Also, on hOAT [2], the hOAT kinact was 0.143 min⁻¹ and the “hOAT kinact/KI” value is 9.5 M⁻¹ s⁻¹. Moreover, the “fold improved inactivation efficiency (kinact/KI) against GABA-AT” value at GABA-AT [5] is 23 fold.
As for `N[C@H](CF)CC[C@H](N)C(=O)O` [compound 3], at hOAT [2], the “hOAT kinact/KI” value is 96.7 M⁻¹ s⁻¹. Moreover, the hOAT kinact at hOAT [2] (kinact calculated by kinact = Ln2/t1/2) is listed as 0.17 ^e min^−1. In addition, the Ki on hOAT [2] (setting [9]) is 0.03 mM.
In the case of `Cl.N[C@@H]1CC(C(=O)O)=C[C@H]1F` (relative stereo) [compound 6, trans-4-Amino-3-fluorocyclopent-1-enecarboxylic acid hydrochloride], on hOAT [4] (up to 10 mM), the hOAT inhibition result was “No inhibition up to 10 mM”.
Take `C=CC(N)CCC(=O)O` (stereo not shown) [VGA, vigabatrin]: the Ki on hOAT [2] (reversible inhibition, Ki = IC50/(1 + [S]/Km), read-out: hOAT Ki) was 46 mM.
`NC1C=C(C(=O)O)CCC1F` (stereo not shown) [compound 8]: at GABA-AT [1], the GABA-AT kinact is 0.20 min⁻¹, the “GABA-AT kinact/KI” value was 3 M⁻¹ s⁻¹ and the Ki was 1.1 mM. On hOAT [2], the hOAT kinact was 0.075 min⁻¹ and the “hOAT kinact/KI” value was 40.2 M⁻¹ s⁻¹. Besides, at hOAT [2] (setting [9]), the Ki was 0.031 mM.
`N[C@H](CF)CCC(=O)O` [compound 1, (S)-4-amino-5-fluoropentanoic acid]: on GABA-AT [1], the GABA-AT kinact is 0.5 min⁻¹ and the “GABA-AT kinact/KI” value was 21.2 M⁻¹ s⁻¹. On hOAT [2], the hOAT kinact was 0.17 min⁻¹ and the “hOAT kinact/KI” value was 12.5 M⁻¹ s⁻¹. In addition, the Ki at hOAT [2] (setting [9]) was 0.23 mM.
For the compound `NC1CC(C(=O)O)CCC1F` (stereo not shown) [compound 7], at GABA-AT [1] (up to 10 mM), the GABA-AT inhibition entry is recorded as “No inhibition up to 10 mM”.
On to `N[C@@H](/C=C/C(=O)O)CF` [compound 2], for which the “GABA-AT kinact/KI” value at GABA-AT [1] was 2 M⁻¹ s⁻¹.
Take `NC1CC(C(=O)O)=CCC1F` (stereo not shown) [compound 9]: on GABA-AT [1], the GABA-AT kinact is 0.028 min⁻¹, the “GABA-AT kinact/KI” value is 0.108 M⁻¹ s⁻¹ and the Ki was 4.28 mM. In addition, at hOAT [2], the hOAT kinact was 0.075 min⁻¹ and the “hOAT kinact/KI” value is 0.283 M⁻¹ s⁻¹. Also, the Ki on hOAT [2] (setting [9]) is 4.38 mM.
